Measurements published in patent US10065934B2, “Substituted urea derivatives and pharmaceutical uses thereof” (SUNSHINE LAKE PHARMA CO., LTD., priority 2014, dated 2018).
Like-named read-outs stand apart in the source and are kept apart here. One block for each compound: values may come before it.

Key:
[1] = system: MV-4-11 cell; test: In vitro cytology inhibitory activity (MV-4-11 cell proliferation, cell viability luminescence); format: cell-based; conditions: Homo sapiens, MV4-11; MV-4-11 cells, 72 h incubation
Procedure: Cell assay condition was shown below:
a. A complete medium was prepared and mixed well. b. Cell was recovered, and cell lines of between about two generations in good condition of growth were selected. c. The cell culture flasks were removed from the incubator, and the labeled cell name on the bottles, culture medium type and cell algebra were checked. d. The cell suspension was pipette into a centrifuge tube, and centrifuged at 800-1000 rpm for 3-5 minutes. e. Cell supernatant of the centrifuge tube was aspirated. f. Appropriate volume of culture medium was added into the centrifuge tube, and the cells were resuspended by gentle pipetting uniform. g. Vi-Cell XR cytometer was used for count. h. The cell suspension was adjusted to the appropriate concentration. i. The cell suspension was added to the bottom wall of the white 96-well plate, 100 microliters/well. Cells name, kind of board density and date were detailed labeled, and the culture plate was placed in CO2 incubator overnight.
2. Preparation and Addition of the Test Compounds
i) Preparation of test compound plates by diluting to 10 concentrations with DMSO: first, the test compound stock solution was prepared by dissolving a weighed compound in DMSO to a concentration of 10 mM, and then diluted to the concentration of 4 mM, which was then diluted to the concentration of 0.4 mM used as the highest concentration for testing with DMSO. The highest concentration was sequentially followed by 3-fold dilution for a total of 10 concentrations. Staurosporine was the positive control drug. ii) Addition of test compounds: a. 0.5 μL of test compound prepared above in compound plate was added into the cell culture plate that had been incubated overnight. Then the culture plate was incubated in an incubator at 37° C. for 72 hours.
3. Detection and Analysis
a. 72 hours after the compound treatment, cells was observed under an inverted microscope morphology, and cell growth state in DMSO control well was normal, there was no contamination. b. The cell culture plate was placed in equilibrium at room temperature for 30 minutes. c. The cell viability detection reagent at 100 μL/well was placed into culture plate. d. The mixture in culture plate was mixed two minutes in the vibration plate machine to induce cell lysis. e. 96-well plate was placed for 10 minutes at room temperature, making it stable luminescent signal. f. White base film was pasted on the bottom of the culture plate, and the plate was tested by using Flexstation3 (related to: light, integration time 500 ms). g. Experimental results were recorded and analyzed.

[2] = Evaluation of pharmacokinetic activity in male SD rats (iv and oral); format: in vivo; conditions: for Vd: read-out: Vss; for bioavailability: po 5 mg/kg vs iv 1 or 2 mg/kg
Procedure: 1. Preparation of the Test Compound Solutions
The test compound solutions were prepared using appropriate amounts of 5% DMSO, 5% KolliphorHS15 and 90% Saline to dissolve each compound completely.
140-190 g male SD rats were randomly divided into two groups. One group was administered through intravenous drug delivery with the dosage of 1.0 or 2.0 mg/kg, and the other group was administered by oral with the dosage of 5.0 mg/kg. For intravenous administration, caudal vein blood samples at the time points of 0.0833, 0.25, 0.5, 1.0, 2.0, 4.0, 6.0, 8.0 and 24 h were collected after drug administration (the time point of drug administration was set as 0 h); and for oral administration, caudal vein blood samples at the time points of 0.25, 0.5, 1.0, 2.0, 4.0, 6.0, 8.0 and 24 h were collected after drug administration (the time point of drug administration was set as 0 h). Appropriate range of standard curve was established according to the sample concentration, and the test compound concentrations in plasma sample were measured by LC-MS/MS analysis. Pharmacokinetic parameters were calculated by non-compartmental method using WinNonLin 6.3 software based on drug concentration-time curves.

[3] = biological target: T1, FLT3 kinase (Homo sapiens, UniProt P36888); test: In vitro enzymatic inhibitory activity (kinase reaction, FAM-labeled peptide); format: biochemical; conditions: in vitro enzymatic inhibition
T1 sequence (P36888 27-993): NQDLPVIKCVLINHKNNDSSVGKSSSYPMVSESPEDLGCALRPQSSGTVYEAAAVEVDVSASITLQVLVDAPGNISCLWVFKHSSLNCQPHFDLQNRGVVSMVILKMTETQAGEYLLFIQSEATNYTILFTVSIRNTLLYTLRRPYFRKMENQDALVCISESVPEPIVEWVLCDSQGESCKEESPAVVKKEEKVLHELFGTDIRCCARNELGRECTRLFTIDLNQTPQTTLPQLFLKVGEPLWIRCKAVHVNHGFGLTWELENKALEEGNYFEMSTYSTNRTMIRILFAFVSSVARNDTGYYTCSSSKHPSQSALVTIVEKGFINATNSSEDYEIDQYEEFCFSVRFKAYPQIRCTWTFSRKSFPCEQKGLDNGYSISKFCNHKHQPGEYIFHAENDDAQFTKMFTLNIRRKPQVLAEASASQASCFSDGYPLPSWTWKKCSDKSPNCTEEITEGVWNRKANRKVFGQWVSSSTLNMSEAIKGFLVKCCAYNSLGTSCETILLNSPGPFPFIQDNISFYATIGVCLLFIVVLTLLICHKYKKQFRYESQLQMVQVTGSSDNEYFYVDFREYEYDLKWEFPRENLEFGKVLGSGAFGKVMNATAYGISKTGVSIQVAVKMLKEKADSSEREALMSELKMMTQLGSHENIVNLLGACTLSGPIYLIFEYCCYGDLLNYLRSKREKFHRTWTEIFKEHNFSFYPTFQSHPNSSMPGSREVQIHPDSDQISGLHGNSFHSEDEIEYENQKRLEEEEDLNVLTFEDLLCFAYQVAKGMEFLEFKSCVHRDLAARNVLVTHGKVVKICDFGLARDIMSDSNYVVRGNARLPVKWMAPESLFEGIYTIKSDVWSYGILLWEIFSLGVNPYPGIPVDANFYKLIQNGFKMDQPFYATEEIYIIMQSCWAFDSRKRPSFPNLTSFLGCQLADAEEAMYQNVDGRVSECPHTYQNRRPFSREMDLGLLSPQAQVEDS

IC50 [1]: 1.6 nM | IC50 [3]: 28 nM
SMILES: CN1CCN(CCOc2ccc(C#Cc3ccc(NC(=O)Nc4cc(C(C)(C)C)on4)cc3)cc2)CC1 [Example 12, 1-(5-(tert-Butyl)isoxazol-3-yl)-3-(4-((4-(2-(4-methylpiperazin-1-yl)ethoxy)phenyl)ethynyl)phenyl)urea]

IC50 [1]: 11.4 nM | IC50 [3]: 72 nM
SMILES: CN(C)C1CCN(CCOc2ccc(C#Cc3ccc(NC(=O)Nc4cc(C(C)(C)C)on4)cc3)cc2)CC1 [Example 14, 1-(5-(tert-Butyl)isoxazol-3-yl)-3-(4-((4-(2-(4-(dimethylamino)piperidin-1-yl)ethoxy)phenyl)ethynyl)phenyl)urea]

IC50 [3]: 84 nM
SMILES: CC(C)(C)c1cc(NC(=O)Nc2ccc(C#Cc3ccc(OCCN4CCOCC4)cc3)cc2)no1 [Example 25, 1-(5-(tert-Butyl)isoxazol-3-yl)-3-(4-((4-(2-morpholinoethoxy)phenyl)ethynyl)phenyl)urea]

The next lines start with the compound.

SMILES: CC(C)(C)c1cc(NC(=O)Nc2ccc(C#Cc3ccc(OCCCN4CCOCC4)cc3F)cc2)no1 [Example 4, 1-(5-(tert-Butyl)isoxazol-3-yl)-3-(4-((2-fluoro-4-(3-morpholinopropoxy)phenyl)ethynyl)phenyl) urea]
IC50 [1]: 5.2 nM | T1/2 ([2]; po, 5 mg/kg): 5.86 h | AUC(0-inf) ([2]; rat, plasma, iv, 2 mg/kg): 6940 ng·h/mL | AUC(0-t) ([2]; rat, plasma, iv, 2 mg/kg): 6570 ng·h/mL | Tmax ([2]; rat, plasma, iv, 2 mg/kg): 0.08 h | half-life ([2]; rat, plasma, iv, 2 mg/kg): 374 min | Cmax ([2]; rat, plasma, iv, 2 mg/kg, read-out: Cmax): 2690 ng/mL | Vd ([2]; rat, plasma, iv, 2 mg/kg): 1.83 L/kg | bioavailability ([2]; rat, plasma): 69.3% | AUC(0-inf) ([2]; rat, plasma, po, 5 mg/kg): 12000 ng·h/mL | AUC(0-t) ([2]; rat, plasma, po, 5 mg/kg): 11300 ng·h/mL | Tmax ([2]; rat, plasma, po, 5 mg/kg): 2.67 h | Cmax ([2]; rat, plasma, po, 5 mg/kg, read-out: Cmax): 1370 ng/mL | IC50 [3]: 39 nM

SMILES: CC(C)(C)c1cc(NC(=O)Nc2ccc(C#Cc3cnn4ccc(OCCCN5CCOCC5)nc34)cc2)no1 [Example 6, 1-(5-(tert-Butyl)isoxazol-3-yl)-3-(4-((5-(3-morpholinopropoxy)pyrazolo[1,5-a]pyrimidin-3-yl)ethynyl)phenyl)urea]
IC50 [1]: 3.1 nM | IC50 [3]: 94 nM

SMILES: CC(C)(C)c1cc(NC(=O)Nc2ccc(C#Cc3ccc(OCCCN4CCC5(COC5)C4)cc3F)cc2)no1 [Example 8, 1-(4-((4-(3-(2-Oxa-6-azaspiro[3.4]octan-6-yl)propoxy)-2-fluorophenyl)ethynyl)phenyl)-3-(5-(tert-butyl)isoxazol-3-yl)urea]
IC50 [1]: 3.4 nM | IC50 [3]: 61 nM

SMILES: CN1CCN(CCCOc2ccc(C#Cc3ccc(NC(=O)Nc4cc(C(C)(C)C)on4)cc3)cc2)CC1 [Example 13, 1-(5-(tert-Butyl)isoxazol-3-yl)-3-(4-((4-(3-(4-methylpiperazin-1-yl)propoxy)phenyl)ethynyl)phenyl)urea]
IC50 [1]: 2.4 nM | IC50 [3]: 23 nM

SMILES: CC(C)(C)c1cc(NC(=O)Nc2ccc(C#Cc3cnn4c(OCCCN5CCOCC5)ccnc34)cc2)no1 [Example 15, 1-(5-(tert-Butyl)isoxazol-3-yl)-3-(4-((7-(3-morpholinopropoxy)pyrazolo[1,5-a]pyrimidin-3-yl)ethynyl)phenyl)urea]
IC50 [3]: 102 nM

SMILES: COc1cc(C#Cc2ccc(NC(=O)Nc3cc(C(C)(C)C)on3)cc2)ccc1OCCCN1CCOCC1 [Example 20, 1-(5-(tert-Butyl)isoxazol-3-yl)-3-(4-((3-methoxy-4-(3-morpholinopropoxy)phenyl)ethynyl)phenyl)urea]
IC50 [3]: 110 nM

SMILES: CC(C)(C)c1cc(NC(=O)Nc2ccc(C#Cc3ccc(OCCN4C[C@@H]5OCCO[C@@H]5C4)cc3)cc2)no1 [Example 24, 1-(5-(tert-Butyl)isoxazol-3-yl)-3-(4-((4-(2-((4aR,7aS)-tetrahydro-2H-[1,4]dioxino[2,3-c]pyrro 1-6(3H)-yl)ethoxy)phenyl)ethynyl)phenyl)urea]
AUClast ([2]; po, 5 mg/kg): 6770 ng·h/mL | Cmax ([2]; po, 5 mg/kg): 862 ng/mL | T1/2 ([2]; po, 5 mg/kg): 3.9 h | AUC(0-inf) ([2]; rat, plasma, iv, 1 mg/kg): 2160 ng·h/mL | AUC(0-t) ([2]; rat, plasma, iv, 1 mg/kg): 2130 ng·h/mL | Tmax ([2]; rat, plasma, iv, 1 mg/kg): 0.083 h | half-life ([2]; rat, plasma, iv, 1 mg/kg): 271 min | Cmax ([2]; rat, plasma, iv, 1 mg/kg, read-out: Cmax): 1340 ng/mL | Vd ([2]; rat, plasma, iv, 1 mg/kg): 1.69 L/kg | bioavailability ([2]; rat, plasma): 63.6% | AUC(0-inf) ([2]; rat, plasma, po, 5 mg/kg): 6870 ng·h/mL | Tmax ([2]; rat, plasma, po, 5 mg/kg): 4 h | IC50 [3]: 160 nM
